Data reported in PubChem BioAssay AID248 (DTP/NCI, 2004).
Inconclusive results and toxic doses are left out. Rule as the data show it: active = T/C of 150% or more; inactive = T/C below 125%.

System: L1210 leukemia ip in BDF1 mice, survival T/C
Assay: NCI In Vivo Anticancer Drug Screen. Data for tumor model L1210 Leukemia (intraperitoneal) in B6D2F1 (BDF1) mice
Settings: endpoint: mean survival time, higher = longer survival
Procedure, shortened: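 Ratio derived from survival: compound-dosed mice over vehicle-dosed mice, all bearing a transplantable tumor.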

[1] = dose: 100.0 mg/kg/injection, schedule: Q04DX002 (ip), vehicle: Klucel (hydroxypropylcellulose) (HPC)
[2] = dose: 200.0 mg/kg/injection, schedule: Q04DX002 (ip), vehicle: Klucel (hydroxypropylcellulose) (HPC)
[3] = dose: 400.0 mg/kg/injection, schedule: Q04DX002 (ip), vehicle: Klucel (hydroxypropylcellulose) (HPC)
[4] = dose: 100.0 mg/kg/injection, schedule: Q01DX009 (ip), vehicle: Klucel (hydroxypropylcellulose) (HPC)
[5] = dose: 200.0 mg/kg/injection, schedule: Q01DX009 (ip), vehicle: Klucel (hydroxypropylcellulose) (HPC)
[6] = dose: 400.0 mg/kg/injection, schedule: Q01DX009 (ip), vehicle: Klucel (hydroxypropylcellulose) (HPC)
[7] = dose: 100.0 mg/kg/injection, schedule: Q01DX001 (ip), vehicle: saline
[8] = dose: 200.0 mg/kg/injection, schedule: Q01DX001 (ip), vehicle: saline
[9] = dose: 400.0 mg/kg/injection, schedule: Q01DX001 (ip), vehicle: saline
[10] = dose: 50.0 mg/kg/injection, schedule: Q01DX001 (ip), vehicle: carboxymethylcellulose (CMC)
[11] = dose: 100.0 mg/kg/injection, schedule: Q01DX001 (ip), vehicle: carboxymethylcellulose (CMC)
[12] = dose: 200.0 mg/kg/injection, schedule: Q01DX001 (ip), vehicle: carboxymethylcellulose (CMC)
[13] = dose: 400.0 mg/kg/injection, schedule: Q01DX001 (ip), vehicle: carboxymethylcellulose (CMC)
[14] = dose: 100.0 mg/kg/injection, schedule: Q04DX003 (ip), vehicle: Klucel (hydroxypropylcellulose) (HPC)
[15] = dose: 200.0 mg/kg/injection, schedule: Q04DX003 (ip), vehicle: Klucel (hydroxypropylcellulose) (HPC)
[16] = dose: 400.0 mg/kg/injection, schedule: Q04DX003 (ip), vehicle: Klucel (hydroxypropylcellulose) (HPC)
[17] = dose: 100.0 mg/kg/injection, schedule: Q04DX003 (ip), vehicle: saline with Tween-80
[18] = dose: 200.0 mg/kg/injection, schedule: Q04DX003 (ip), vehicle: saline with Tween-80
[19] = dose: 400.0 mg/kg/injection, schedule: Q04DX003 (ip), vehicle: saline with Tween-80
[20] = dose: 100.0 mg/kg/injection, schedule: Q04DX002 (ip), vehicle: saline
[21] = dose: 200.0 mg/kg/injection, schedule: Q04DX002 (ip), vehicle: saline

Measured: T/C

COc1cc(C[C@H]2c3cc(OC)c(OC)cc3CCN2C)c(Oc2cc3c(cc2OC)-c2c(OC)c(OC)cc4c2[C@H](C3)N(C)CC4)cc1OC
inactive: dose: 12.0 mg/kg/injection, schedule: Q01DX005 (ip), vehicle: other 110 % of control | dose: 12.0 mg/kg/injection, schedule: Q01DX009 (ip), vehicle: other 97 % of control | dose: 18.0 mg/kg/injection, schedule: Q04DX003 (ip), vehicle: other 107 % of control | dose: 24.0 mg/kg/injection, schedule: Q01DX005 (ip), vehicle: other 106 % of control | dose: 24.0 mg/kg/injection, schedule: Q01DX009 (ip), vehicle: other 105 % of control | dose: 25.0 mg/kg/injection, schedule: Q01DX009 (ip), vehicle: clinical formulation 103 % of control | dose: 27.0 mg/kg/injection, schedule: Q08DX002 (ip), vehicle: other 103 % of control | dose: 36.0 mg/kg/injection, schedule: Q04DX003 (ip), vehicle: other 103 % of control | dose: 48.0 mg/kg/injection, schedule: Q01DX005 (ip), vehicle: other 110 % of control | dose: 48.0 mg/kg/injection, schedule: Q01DX009 (ip), vehicle: other 108 % of control | dose: 50.0 mg/kg/injection, schedule: Q01DX009 (ip), vehicle: clinical formulation 100 % of control | dose: 54.0 mg/kg/injection, schedule: Q08DX002 (ip), vehicle: other 106 % of control | dose: 72.0 mg/kg/injection, schedule: Q04DX003 (ip), vehicle: other 108 % of control | dose: 80.0 mg/kg/injection, schedule: Q01DX015 (ip), vehicle: carboxymethylcellulose (CMC) 88 % of control | dose: 96.0 mg/kg/injection, schedule: Q01DX005 (ip), vehicle: other 108 % of control | dose: 96.0 mg/kg/injection, schedule: Q01DX009 (ip), vehicle: other 105 % of control | dose: 100.0 mg/kg/injection, schedule: Q01DX009 (ip), vehicle: clinical formulation 102 % of control | [1] 104 % of control | dose: 108.0 mg/kg/injection, schedule: Q08DX002 (ip), vehicle: other 102 % of control | dose: 144.0 mg/kg/injection, schedule: Q04DX003 (ip), vehicle: other 103 % of control | dose: 160.0 mg/kg/injection, schedule: Q01DX015 (ip), vehicle: carboxymethylcellulose (CMC) 93 % of control | dose: 192.0 mg/kg/injection, schedule: Q01DX005 (ip), vehicle: other 105 % of control | dose: 192.0 mg/kg/injection, schedule: Q01DX009 (ip), vehicle: other 101 % of control | [2] 86 % of control | dose: 216.0 mg/kg/injection, schedule: Q08DX002 (ip), vehicle: other 95 % of control | dose: 288.0 mg/kg/injection, schedule: Q04DX003 (ip), vehicle: other 97 % of control | [3] 101 % of control

COc1cc(OC)c(NC(=O)/C=C/c2ccccc2)cc1Cl
inactive: [4] 92 % of control | [5] 100 % of control | [6] 95 % of control

CCCCN1COC(OCC)C(C)(C)C1 (stereo not drawn)
inactive: dose: 75.0 mg/kg/injection, schedule: Q01DX009 (ip), vehicle: saline 116 % of control | dose: 150.0 mg/kg/injection, schedule: Q01DX009 (ip), vehicle: saline 113 % of control | dose: 300.0 mg/kg/injection, schedule: Q01DX009 (ip), vehicle: saline 112 % of control

Oc1ccccc1-c1nc2cc(Cl)ccc2o1
inactive: [1] 97 % of control | [2] 97 % of control | [3] 101 % of control

Nc1nc(N)c(N=Nc2ccccc2S(=O)(=O)O)c(N)n1
inactive: [7] 105 % of control | [8] 89 % of control | [9] 96 % of control

C(=C\c1ccc(-n2nc3ccc4ccccc4c3n2)cc1)/c1ccccc1
inactive: dose: 50.0 mg/kg/injection, schedule: Q01DX009 (ip), vehicle: saline with Tween-80 97 % of control | dose: 100.0 mg/kg/injection, schedule: Q01DX009 (ip), vehicle: saline with Tween-80 102 % of control | dose: 200.0 mg/kg/injection, schedule: Q01DX009 (ip), vehicle: saline with Tween-80 102 % of control

O=C1C(Cl)=C(N2CCOCC2)C(=O)C(Cl)=C1N1CCOCC1
inactive: [10] 94 % of control | [11] 92 % of control | [12] 99 % of control | [13] 97 % of control

c1ccc(COc2ccc3oc4ccccc4c3c2)cc1
inactive: [4] 96 % of control | [14] 94 % of control | [5] 94 % of control | [15] 96 % of control | [6] 96 % of control | [16] 91 % of control

CCCCC(NC(=O)CNC(=O)OCc1ccccc1)C(=O)OC (stereo not drawn)
inactive: [17] 108 % of control | [18] 100 % of control | [19] 93 % of control

Cn1[nH]c(=S)c(=O)[nH]c1=O
inactive: [7] 111 % of control | [8] 106 % of control | [9] 101 % of control

CC(=O)OC1CCC2(C)C(=CCC3C2CCC2(C)c4c(-c5ccccc5)nn(-c5ccccc5)c4CC32)C1 (stereo not drawn)
inactive: dose: 12.5 mg/kg/injection, schedule: Q04DX002 (ip), vehicle: Klucel (hydroxypropylcellulose) (HPC) 96 % of control | dose: 25.0 mg/kg/injection, schedule: Q04DX002 (ip), vehicle: Klucel (hydroxypropylcellulose) (HPC) 96 % of control | dose: 50.0 mg/kg/injection, schedule: Q04DX002 (ip), vehicle: Klucel (hydroxypropylcellulose) (HPC) 101 % of control

CCCC(OC(C)=O)C(Cl)(Cl)Cl (stereo not drawn)
inactive: dose: 50.0 mg/kg/injection, schedule: Q01DX009 (ip), vehicle: Klucel (hydroxypropylcellulose) (HPC) 103 % of control | [4] 107 % of control | [14] 97 % of control | [15] 97 % of control

CCN(CC)CCCC(C)Nc1c(C)cnc2cc(Cl)c(C)cc12 (stereo not drawn)
inactive: dose: 50.0 mg/kg/injection, schedule: Q01DX001 (ip), vehicle: saline 112 % of control | [7] 95 % of control | [8] 101 % of control

CC(C)CCOC(=O)C1OC1(C)c1ccccc1 (stereo not drawn)
inactive: [20] 101 % of control | [21] 93 % of control | dose: 400.0 mg/kg/injection, schedule: Q04DX002 (ip), vehicle: saline 112 % of control

N#CC(CN1CCOCC1)[N+](=O)[O-] (stereo not drawn)
inactive: [17] 98 % of control | [18] 93 % of control | [19] 95 % of control

CCCCCCCCCCCC(=O)NC(=S)Nc1cc(OC)ccc1OC
inactive: [1] 104 % of control | [2] 111 % of control | [3] 93 % of control

BrCc1cccc2cccc(CBr)c12
inactive: dose: 50.0 mg/kg/injection, schedule: Q04DX003 (ip), vehicle: Klucel (hydroxypropylcellulose) (HPC) 97 % of control | dose: 100.0 mg/kg/injection, schedule: Q01DX001 (ip), vehicle: Klucel (hydroxypropylcellulose) (HPC) 113 % of control | [14] 101 % of control | dose: 200.0 mg/kg/injection, schedule: Q01DX001 (ip), vehicle: Klucel (hydroxypropylcellulose) (HPC) 111 % of control | [15] 103 % of control

CC(C)(CCC(=O)O)CCC(=O)O
inactive: [10] 100 % of control | [11] 111 % of control | [12] 100 % of control | [13] 94 % of control

OCC(O)C(O)/C=N/Nc1cc(Cl)ccc1Cl (stereo not drawn)
inactive: [10] 90 % of control | [11] 104 % of control | [12] 95 % of control

CCOC(=O)C(N=Nc1nn[nH]n1)C(C)=O (stereo not drawn)
inactive: dose: 100.0 mg/kg/injection, schedule: Q04DX003 (ip), vehicle: acetone 109 % of control | dose: 200.0 mg/kg/injection, schedule: Q04DX003 (ip), vehicle: acetone 94 % of control | dose: 400.0 mg/kg/injection, schedule: Q04DX003 (ip), vehicle: acetone 108 % of control

CCCCS/C=C1/Sc2cc[nH]c2C1=O
inactive: [14] 96 % of control | [15] 96 % of control | [16] 94 % of control

CNC(=O)C(C)NC(C)=O (stereo not drawn)
inactive: dose: 50.0 mg/kg/injection, schedule: Q04DX002 (ip), vehicle: saline 99 % of control | [20] 102 % of control | [21] 105 % of control
